Test results taken from article PMC7203245, “Lacosamide intake during pregnancy increases the incidence of foetal malformations and symptoms associated with schizophrenia in the offspring of mice” (Scientific Reports, 2020).

What was measured:
[1] = Nissl staining and immunohistochemistry (calbindin, calretinin, doublecortin) of adult brain; type: in vivo, mice
Method: (§1) As formerly described by[59], mice from each experimental group were anesthetized with 4% of chloral hydrate (10 µL/g of weight) and trans-cardiacally perfused with cold saline. Brains were removed and fixed by immersion for 24 h at 4 °C in 4% paraformaldehyde prepared in phosphate-buffered saline (PBS). Tissue was cryoprotected in 30% sucrose-PBS for 2 days at 4 °C and coronal brain sections (50 µm) were then processed for Nissl staining and free-floating immunohistochemistry. Sections encompassed roughly between 2.80 mm to -2.80 mm from Bregma[60] were selected for Toluidine blue staining and immunohistochemical processing. Brain slices from all animals were processed simultaneously in each assay. Immunohistochemistry assays were performed with free-floating sections and an avidin-biotinylated peroxidase method. Primary antibodies used were calbindin (CB, 1:500, Santa Cruz, sc-365360), calretinin (CR, 1:1000, Santa Cruz, sc-26512) and doublecortin (DCX, 1:500, Santa Cruz, sc-8066). Secondary biotinylated antibodies were used (1:500). […] Several control sections were processed without the primary antibody, showing no signal. To minimize variability, at least 2 sections from each area were analysed per animal on a bright-field DMRB RFY HC microscope (Leica) using a 10X objective. For DCX quantification images were taken using a 20X objective and later a whole image of dentate gyrus was reconstructed using Photoshop tiling function. In each section, the total number of labelled cells per area of tissue was quantified using Image-J software (downloaded as a free software package from the public domain: http://rsb.info.nih.gov/ij/download.html). 6 different animals were processed for each primary antibody and pharmacologic treatment from 10 litters.

adult mouse neocortex = test: as above; type: in vivo, mice
Method: as §1

adult male mice [2] = test: Object recognition memory; type: in vivo; settings: 1 hour after the training session; LCM in utero
Method: (§2) All trials were performed by an experimenter blind to the drug treatment.
Object recognition memory. Mice were tested in a rectangular arena (55 x 40 x 40 cm) situated in a room with dim lighting and constant background noise. The object recognition protocol was described extensively elsewhere^2. Briefly, two equal objects were placed in the arena during a 15 minutes training phase and the animal’s memory of the original object was assessed by comparing the amount of time spent exploring the novel object against that for the familiar one in two sessions (of 10 minutes) performed 1 and 24h after training (for short-term and long-term memories [STM and LTM] respectively). The time spent exploring each object was recorded and the relative exploration of the novel object was expressed by a discrimination index [DI = (tnovel-tfamiliar)/(tnovel+tfamiliar)]. The criteria for exploration were based strictly on active exploration. Exploration of an object was defined as directing the nose toward the object at a distance of 1.5 cm and/or touching the object with the nose or vibrissae. Circling or sitting on the object were not considered exploratory behaviours.

pups = test: Litter loss, neonatal lethality and body weight of pups born to dams given LCM during gestation; type: in vivo, mice; settings: for weight gain from P2 to P13: higher dose
Method: Thus, we used 10, 40, 80 and 120 mg/kg in mice, which corresponded to 56.7, 227, 454 and 681 mg/day in humans, considering an average weight of human to be 70 kg and that of mice to be 30 gr[52],[55]. Controls were administered the vehicle alone: saline solution 0.9% w/v. […] A total of 32 dams were initially treated daily, two days before mating and until the 14th day post-coitus. […] In the breastfeeding period, females were not under treatment given that a person will bottle feed the baby if they were on medication.
In this part of the study, dams were treated until the day of delivery. After analysing the embryo toxicity data, the treatments were categorized as controls (saline vehicle solution alone), low dose (40 mg/kg) and high dose (120 mg/kg). […] The day of birth was designated as postnatal day (P) P0 and the litter size delivered by each dam was recorded, checking each pup for gross abnormalities. Pups were nursed by their natural dams until weaning and from PD 2, the pups were weighed and neonatal behavioural tests were carried out on 12 control mice, 12 low dose and 10 high dose mice from 7 litters. During testing whole litters were separated from the dams and maintained for 30 min in a warm environment. At this stage, males and females were pooled for neurodevelopmental screening. All testing was performed between 07:30 a.m. and 12:00 a.m., and the mice were weighed before performing the tests.

adult male mice [3] = test: Pain assay (hot plate); type: in vivo; settings: 120 mg/kg LCM during gestation; at 52 and 55 degrees relative to control
Method: as §2
Pain assay. Pain behaviour was assessed in mice using the hot plate. For the hot-plate test, a glass cylinder (16 cm high, 16 cm in diameter) was used to constrain the mice to the heated surface of the plate. The plate surface was maintained at 50-55 ± 0.5 °C and the latency to commence paw-licking was measured, using a 30 s cut-off time for each of the tested temperatures. Each temperature was tested with 1h apart.

adult male mice [4] = test: Startle response/prepulse inhibition (PPI) test; type: in vivo
Method: as §2
Startle response/prepulse inhibition (PPI) test. Animals were placed individually inside a startle chamber (Cibertec S.A., Madrid, Spain) and the startle response was measured using a piezoelectric accelerometer controlled by a computer. The digitized signal was averaged from 25–30 recordings. For training, the mouse was placed in the startle chamber for an acclimation period of 3 min. Baseline responses were averaged after the presentation of 20 sounds (125 dB, 100 ms long) and from this phase, the average response and peak latencies, and the peak response were determined. During PPI trials, the same 125-dB 100-ms burst was preceded (250 ms) by a prepulse stimulus of 85 dB, lasting for 50 ms. Trials including prepulse stimuli were randomly presented with normal startle stimuli, the final total being 25 of each, and the proportion of PPI was determined as [(1-prepulse/startle)*100]. The ambient background noise was 70 dB.

adult male mice [5] = test: Tail suspension test; type: in vivo; settings: 5 minutes
Method: as §2
Tail suspension test. Depression-like behaviour in mice was determined by measuring the time spent immobile in the tail suspension test. Mice were suspended above the floor by attaching the end of their tail to wire netting, and the time spent immobile during a 5 min test session was measured.

[6] = higher dose (120 mg/kg) to dams during gestation
[7] = lower dose (40 mg/kg) to dams during gestation

COC[C@@H](NC(C)=O)C(=O)NCc1ccccc1 [LCM, R-2-acetamido-N-benzyl-3-methoxypropionamide]
DCX labelling in ventral DG ([1]; 40 mg/kg in utero): 13.46 ± 1.03 cells/100 µm²
DCX labelling in ventral DG ([1]; 120 mg/kg in utero): 9.75 ± 0.85 cells/100 µm²
number of CR neurons in PrL cortex (adult mouse neocortex; 40 mg/kg in utero): 10.83 ± 1.12 cells/100 µm²
number of CR neurons in RSA cortex (adult mouse neocortex; 40 mg/kg in utero): 16.18 ± 1.23 cells/100 µm²
number of calbindin (CB) labelled neurons in the amygdala (adult mouse neocortex; 40 mg/kg in utero): 23.28 ± 2.98 cells/100 µm^2
number of CR neurons in PrL cortex (adult mouse neocortex; 120 mg/kg in utero): 13.03 ± 1.08 cells/100 µm²
number of CR neurons in RSA cortex (adult mouse neocortex; 120 mg/kg in utero): 16.94 ± 0.7 cells/100 µm²
number of calbindin (CB) labelled neurons in the amygdala (adult mouse neocortex; 120 mg/kg in utero): 13 ± 1.8 cells/100 µm^2
short-term memory in object recognition (adult male mice [2]): no effects
dams that never gained weight, suggesting that they lost their litters (pups; 40 mg/kg LCM daily from second day of gestation to birth): 1/5
dams that never gained weight, suggesting that they lost their litters (pups; 120 mg/kg LCM daily from second day of gestation to birth): 2/8
body weight differences in adults (pups; both LCM doses (40 and 120 mg/kg in utero), adult mice): disappeared
neonatal lethality (%) (pups; [6]): 15.38%
neonatal lethality (pups) (pups; [6]): 10/65
weight gain from P2 to P13 (pups; litter that died in the perinatal nursing period): 2 g
weight gain from P2 to P13 (pups; other pups under the same condition): 6.1 g
neonatal lethality (%) (pups; [7]): 9%
neonatal lethality (pups) (pups; [7]): 3/33
pups of an entire litter that died in the perinatal nursing period (P15-16) (pups; one dam exposed to higher dose): 11 pups
thermal nociception in the hot plate test (adult male mice [3]): significant hyperalgesia
PPI of the acoustic startle response (adult male mice [4]; 40 mg/kg in utero): 54.85 ± 4.27%
PPI of the acoustic startle response (adult male mice [4]; 120 mg/kg in utero): 23.19 ± 7.9%
acoustic startle reflex parameters (peak latencies, maximum peak response) (adult male mice [4]; LCM administration during gestation): did not modify any parameters
immobility time (tail suspension test) (adult male mice [5]; 40 mg/kg in utero): 82.58 ± 7.38 s
immobility time (tail suspension test) (adult male mice [5]; 120 mg/kg in utero): 109.0 ± 7.69 s
